Results taken from paper PMC12375786, “Revolutionizing cancer treatment with Halomonas Aquamarina L-Glutaminase: insights from in vitro and computational studies” (Scientific Reports, 2025).

System: T1, L-GLS (L-glutaminase) of Halomonas aquamarina HBIM1
T1 construct: gene glsA
Conditions: unit printed as mM^-1 (reciprocal, probably mM meant); pH and temperature of the kinetic run not given

Km: 0.198 mM⁻¹
SMILES: NC(=O)CC[C@H](N)C(=O)O [L-glutamine]
